Among the data in patent publication US7842808B2, “Anti-migraine spirocycles” (Bristol-Myers Squibb Company, priority 2002, dated 2010) are IC50 values, retold here.

In assay [1] the target is T1, human CGRP receptor (SK-N-MC cells) (Homo sapiens, UniProt O60894+Q16602).
T1 construct: SK-N-MC cells that endogenously express the human CGRP receptor; endogenous in cells; host or cells: SK-N-MC cells
The assay is described as follows: Cyclic AMP Assay, functional antagonism of CGRP-induced cyclic AMP formation. Format: cell-based. The procedure: Functional Antagonism. Antagonism of the compounds of invention was determined by measuring the formation of cyclic AMP (adenosine 3′5′-cyclic monophosphate) in SK-N-MC cells that endogenously express the human CGRP receptor. […] For cyclic AMP measurements SK-N-MC cells were incubated with 0.3 nM CGRP alone or in the presence of various concentrations of the compounds of invention for 30 min at room temperature. […] Cyclic AMP was extracted using the lysis reagent and its concentration was determined by radioimmunoassay using RPA559 cAMP SPA Direct Screening Assay Kit (Amersham Pharmacia Biotech). IC50 values were calculated using Excel fit.

Assay [2] deals with T2, CGRP receptor (SK-N-MC cell membranes) (Homo sapiens, UniProt O60894+Q16602).
T2 construct: endogenous in cells; host or cells: SK-N-MC cells (membrane homogenate)
T2 sequence (Q16602 23-461): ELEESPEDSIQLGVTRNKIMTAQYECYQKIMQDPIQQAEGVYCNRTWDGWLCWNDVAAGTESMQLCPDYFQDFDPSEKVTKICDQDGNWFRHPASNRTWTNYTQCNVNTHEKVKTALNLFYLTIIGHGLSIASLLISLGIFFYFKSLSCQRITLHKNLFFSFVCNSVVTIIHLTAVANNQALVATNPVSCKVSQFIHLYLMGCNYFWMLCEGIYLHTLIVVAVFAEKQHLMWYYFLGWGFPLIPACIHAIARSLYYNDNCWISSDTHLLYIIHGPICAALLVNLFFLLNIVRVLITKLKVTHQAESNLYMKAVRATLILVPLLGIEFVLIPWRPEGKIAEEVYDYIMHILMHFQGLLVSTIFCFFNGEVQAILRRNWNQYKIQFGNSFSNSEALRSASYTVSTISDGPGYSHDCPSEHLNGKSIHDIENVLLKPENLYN
T2 sequence (O60894 27-148): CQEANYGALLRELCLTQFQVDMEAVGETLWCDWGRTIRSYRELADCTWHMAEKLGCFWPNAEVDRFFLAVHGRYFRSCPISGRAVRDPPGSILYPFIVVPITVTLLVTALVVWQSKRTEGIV
The assay is described as follows: CGRP Binding Assay ([125I]-CGRP radioligand binding, SK-N-MC homogenate).

Setting [3] is: SK-N-MC cells, 0.3 nM CGRP, read-out: cAMP Function IC50.
Where [4] appears, read: displacement of [125I]-CGRP, SK-N-MC homogenate, read-out: CGRP binding IC50.

The structures appear in SMILES notation. Read-outs that look alike come from different tables or passages of the source.

T1 sequence (Q16602 23-461): as the sequence (Q16602 23-461) above
T1 sequence (O60894 27-148): as the sequence (O60894 27-148) above

With `O=C1Nc2ccccc2C2(CCN(C(=O)CC(Cc3ccc4[nH]ncc4c3)C(=O)N3CCC(N4CCCCC4)CC3)CC2)O1` (racemic) [Example 79, (±)-1-[1,4′]Bipiperidinyl-1′-yl-2-(1H-indazol-5-ylmethyl)-4-[1′,2′-dihydro-2′-oxospiro-[4H-3′,1-benzoxazine-4,4′-piperidinyl]-butane-1,4-dione], the IC50 lay in the range of 100 to 1000 nM in assay [1] (setting [3]) and 10 to 100 nM in assay [2] (setting [4]). For `CN(C)C(=O)C(CC(=O)N1CCC(N2Cc3ccccc3NC2=O)CC1)Cc1ccc2[nH]ncc2c1` (racemic) [Example 82, (±)-2-(1H-Indazol-5-ylmethyl)-N,N-dimethyl-4-oxo-4-[4-(2-oxo-1,4-dihydro-2H-quinazolin-3-yl)-piperidin-1-yl]-butyramide] the same measures were 100 to 1000 nM and 10 to 100 nM.

For `O=C1NCC2(CCN(C(=O)N[C@H](Cc3csc4ccccc34)C(=O)N3CCC(N4CCCCC4)CC3)CC2)c2ccccc21` [Example 63, N-[(1R)-1-(Benzo[b]thien-3-ylmethyl)-2-[1,4-bipiperidin]-1-yl-2-oxoethyl]-2′,3′-dihydro-1-oxospiro-[piperidine-4,4′(1H)-isoquinoline]-1-carboxamide], the IC50 in assay [1] (setting [3]) and in assay [2] (setting [4]) was 100 to 1000 nM throughout.

`Cc1cc(CC(CC(=O)N2CCC(N3Cc4ccccc4NC3=O)CC2)C(=O)N2CCCCC2)cc2cn[nH]c12` (racemic) [Example 78, (±)-2-(7-Methyl-1H-indazol-5-ylmethyl)-4-[4-(2-oxo-1,4-dihydro-2H-quinazolin-3-yl)-piperidin-1-yl]-1-piperidin-1-yl-butane-1,4-dione]: the IC50 in assay [1] (setting [3]) and in assay [2] (setting [4]) was below 10 nM in each case. For the compound `O=C(CC(Cc1ccc2[nH]ncc2c1)C(=O)N1CCC2(CC1)OCCO2)N1CCC(N2Cc3ccccc3NC2=O)CC1` (racemic) [Example 81, (±)-1-(1,4-Dioxa-8-aza-spiro[4.5]dec-8-yl)-2-(1H-indazol-5-ylmethyl)-4-[4-(2-oxo-1,4-dihydro-2H-quinazolin-3-yl)-piperidin-1-yl]-butane-1,4-dione], the half-inhibitory concentration (IC50) fell in the range of 100 to 1000 nM in assay [1] and 10 to 100 nM in assay [2] (setting [4]). `Cc1nc(N[C@@H](CC(=O)N2CCC(N3Cc4ccccc4NC3=O)CC2)C(=O)N2CCC(N3CCCCC3)CC2)nc2nn[nH]c12` [Example 92, (L)-1-[1,4′]Bipiperidinyl-1′-yl-2-(7-methyl-1H-[1,2,3]triazolo[4,5-d]pyrimidin-5-ylamino)-4-[4-(2-oxo-1,4-dihydro-2H-quinazolin-3-yl)-piperidin-1-yl]-butane-1,4-dione]: the IC50 in assay [1] (setting [3]) fell in the range of 100 to 1000 nM; in assay [2] (setting [4]), 10 to 100 nM.

As for `O=C(C[C@H](Nc1cc(Cl)ccc1[N+](=O)[O-])C(=O)N1CCC(N2CCCCC2)CC1)N1CCC(N2Cc3ccccc3NC2=O)CC1` [Example 87, (L)-1-[1,4′]Bipiperidinyl-1′-yl-2-(5-chloro-2-nitro-phenylamino)-4-[4-(2-oxo-1,4-dihydro-2H-quinazolin-3-yl)-piperidin-1-yl]-butane-1,4-dione], the IC50 in assay [1] (setting [3]) and in assay [2] (setting [4]) was 10 to 100 nM in each case. In the case of `Cc1cc(CC(NC(=O)N2CCC3(CC2)N=C(c2ccccc2)NC3=O)C(=O)N2CCC(N3CCCCC3)CC2)cc2cn[nH]c12` (racemic) [Example 34, (±)-4-Oxo-2-phenyl-1,3,8-triaza-spiro[4,5]dec-1-ene-8-carboxylic acid {1-(7-methyl-1H-indazol-5-yl methyl)-2-[1,4]bipiperidinyl-1′-yl-2-oxo-ethyl}-amide], the IC50 in assay [1] (setting [3]) and in assay [2] (setting [4]) was below 10 nM each time. For `O=C(C[C@H](Nc1cc(Cl)ncn1)C(=O)N1CCC(N2CCCCC2)CC1)N1CCC(N2Cc3ccccc3NC2=O)CC1` [Example 88, (L)-1-[1,4′]Bipiperidinyl-1′-yl-2-(6-chloro-pyrimidin-4-ylamino)-4-[4-(2-oxo-1,4-dihydro-2H-quinazolin-3-yl)-piperidin-1-yl]-butane-1,4-dione], the half-inhibitory concentration (IC50) was 10 to 100 nM in assay [1] (setting [3]) and 100 to 1000 nM in assay [2] (setting [4]).

As to `Cc1nc2cc(C[C@@H](NC(=O)N3CCC(N4Cc5ccccc5NC4=O)CC3)C(=O)N3CCC(N4CCCCC4)CC3)ccc2[nH]1` [Example 46, (R)-4-(2-Oxo-1,4-dihydro-2H-quinazolin-3-yl)-piperidine-1-carboxylic acid[2-[1,4′]bipiperidinyl-1′-yl-1-(2-methyl-1H-benzoimidazol-5-ylmethyl)-2-oxo-ethyl]-amide], the IC50 in assay [1] (setting [3]) and in assay [2] (setting [4]) was 10 to 100 nM in each case. Turning to `O=C1CC2(CCN(C(=O)N[C@H](Cc3csc4ccccc34)C(=O)N3CCC(N4CCCCC4)CC3)CC2)c2ccccc2N1` [Example 62, N-[(1R)-1-(Benzo[b]thien-3-ylmethyl)-2-[1,4-bipiperidin]-1-yl-2-oxoethyl]-3′,4′-dihydro-2-oxospiro-[piperidine-4,4′(1H)-quinoline]-1-carboxamide], the IC50 in assay [1] (setting [3]) and in assay [2] (setting [4]) was 10 to 100 nM each time. Turning to `O=C(NC(Cc1ccc2[nH]ccc2c1)C(=O)N1CCC2(CC1)OCCO2)N1CCC(n2c(=O)[nH]c3ccccc32)CC1` (racemic) [Example 8, (±)-4-(2-Oxo-2,3-dihydro-benzoimidazol-1-yl)-piperidine-1-carboxylic acid[2-(1,4-dioxa-8-aza-spiro[4.5]dec-8-yl)-1-(1H-indol-5-ylmethyl)-2-oxo-ethyl]-amide], the IC50 in assay [1] and in assay [2] was 100 to 1000 nM in each case. On to `Cc1cc(CC(NC(=O)N2CCC(N3Cc4ccccc4NC3=O)CC2)C(=O)N2CCN(c3ccccn3)CC2)cc2cn[nH]c12` (racemic) [Example 22, (±)-4-(2-Oxo-1,4-dihydro-2H-quinazolin-3-yl)-piperidine-1-carboxylic acid[1-(7-methyl-1H-indazol-5-ylmethyl)-2-oxo-2-(4-pyridin-2-yl-piperazin-1-yl)-ethyl]-amide], for which the half-maximal inhibitory concentration (IC50) in assay [1] (setting [3]) and in assay [2] (setting [4]) was below 10 nM in each case. In the case of `O=C(Nc1cccc(F)c1)N[C@@H](CC(=O)N1CCC(N2Cc3ccccc3NC2=O)CC1)C(=O)N1CCC(N2CCCCC2)CC1` [Example 177], the IC50 in assay [2] (setting [4]) was in the range of 10 to 100 nM. On the same count and under the same terms, for `O=C(N[C@@H](CC(=O)N1CCC(N2Cc3ccccc3NC2=O)CC1)C(=O)N1CCC(N2CCCCC2)CC1)c1cc(C(F)(F)F)cc(C(F)(F)F)c1` [Example 107] the value was 100 to 1000 nM; for `COC(=O)[C@H](Cc1ccccc1)NC(=O)N[C@@H](CC(=O)N1CCC(N2Cc3ccccc3NC2=O)CC1)C(=O)N1CCC(N2CCCCC2)CC1` [Example 166], 100 to 1000 nM. Same read-out and setting: to `O=C(Nc1ccc(Cl)cc1)N[C@@H](CC(=O)N1CCC(N2Cc3ccccc3NC2=O)CC1)C(=O)N1CCC(N2CCCCC2)CC1` [Example 140] belongs 10 to 100 nM; to `O=C(Cc1cccs1)N[C@@H](CC(=O)N1CCC(N2Cc3ccccc3NC2=O)CC1)C(=O)N1CCC(N2CCCCC2)CC1` [Example 117], 100 to 1000 nM. In the case of `O=C(Nc1cccc2ccccc12)N[C@@H](CC(=O)N1CCC(N2Cc3ccccc3NC2=O)CC1)C(=O)N1CCC(N2CCCCC2)CC1` [Example 137], in assay [2] (setting [4]), the IC50 was in the range of 100 to 1000 nM.

`Cc1cc(Cl)ccc1NC(=O)N[C@@H](CC(=O)N1CCC(N2Cc3ccccc3NC2=O)CC1)C(=O)N1CCC(N2CCCCC2)CC1` [Example 191]: the IC50 in assay [2] (setting [4]) lay in the range of 100 to 1000 nM. For the compound `O=C(Nc1ccc(F)cc1)N[C@@H](CC(=O)N1CCC(N2Cc3ccccc3NC2=O)CC1)C(=O)N1CCC(N2CCCCC2)CC1` [Example 180], in assay [2] (setting [4]), the IC50 fell in the range of 100 to 1000 nM. Still for that read-out and setting: to `Cc1cc(CC(NC(=O)N2CCC3(CC2)OC(=O)Nc2ccccc23)C(=O)N2CCN(c3ccncc3)CC2)cc2cn[nH]c12` (racemic) [Example 29, (±)-1′,2′-Dihydro-2′-oxospiro-[4H-3′,1-benzoxazine-4,4′-piperidine-1-carboxylic acid[1-(7-methyl-1H-indazol-5-ylmethyl)-2-oxo-2-(4-pyridin-4-yl-piperazin-1-yl)-ethyl]-amide] belongs below 10 nM.

In the case of `O=C(N[C@@H](CC(=O)N1CCC(N2Cc3ccccc3NC2=O)CC1)C(=O)N1CCC(N2CCCCC2)CC1)c1cccc(F)c1` [Example 105], in assay [2] (setting [4]), the IC50 lay within 100 to 1000 nM. `O=C(N[C@@H](CC(=O)N1CCC(N2Cc3ccccc3NC2=O)CC1)C(=O)N1CCC(N2CCCCC2)CC1)c1cc[nH]n1` [Example 101, (L)-1H-Pyrazole-3-carboxylic acid{1-([1,4′]bipiperidinyl-1′-carbonyl)-3-oxo-3-[4-(2-oxo-1,4-dihydro-2H-quinazolin-3-yl)-piperidin-1-yl]-propyl}-amide]: in assay [2] (setting [4]), the IC50 is above 1000 nM.

On to `O=C(Nc1cc(C(F)(F)F)ccc1Cl)N[C@@H](CC(=O)N1CCC(N2Cc3ccccc3NC2=O)CC1)C(=O)N1CCC(N2CCCCC2)CC1` [Example 167], for which the IC50 in assay [2] (setting [4]) was in the range of 100 to 1000 nM.

With `Cc1cc(CC(NC(=O)N2CCC(N3Cc4ccccc4NC3=O)CC2)C(=O)O[C@H](C)c2ccncc2)cc2cn[nH]c12` (stereo partly drawn) [Example 41e, 3-(7-Methyl-1H-indazol-5-yl)-2-{[4-(2-oxo-1,4-dihydro-2H-quinazolin-3-yl)-piperidine-1-carbonyl]-amino}-propionic acid (R)-1-pyridin-4-yl-ethyl ester], the IC50 in assay [2] (setting [4]) was below 10 nM. Turning to `COC(=O)C(Cc1cc(Cl)c2[nH]ncc2c1)NC(=O)N1CCC(N2Cc3ccccc3NC2=O)CC1` (racemic) [Example 42, (±)-3-(7-Chloro-1H-indazol-5-yl)-2-{[4-(2-oxo-1,4-dihydro-2H-quinazolin-3-yl)-piperidine-1-carbonyl]-amino}-propionic acid methyl ester], the half-inhibitory concentration (IC50) in assay [2] (setting [4]) lay within 100 to 1000 nM.

Take `Cc1ccc(OC(=O)N[C@@H](CC(=O)N2CCC(N3Cc4ccccc4NC3=O)CC2)C(=O)N2CCC(N3CCCCC3)CC2)cc1` [Example 132]: the IC50 in assay [2] (setting [4]) is 100 to 1000 nM.
